Source: patent US20240398767A1, “INHIBITORS OF THE MTDH-SND1 PROTEIN COMPLEX FOR CANCER THERAPY” (The Trustees of Princeton University, priority 2021, published 2024)

Tests used:
[1] = test system: PyMT tumor cells with Mtdh KO or Snd1 KD; assay: Tumorsphere assay, PyMT;UBC-CreERT+/-;Mtdhfl/fl cells with Mtdh KO or Snd1 KD; format: cell-based, mouse; settings: Mtdh KO (4-OHT pre-treatment) or Snd1 KD
Procedure: (§1) FIG. 4D, PyMT;UBC-Cre^ERT+/−;Mtdh^fl/fl cells with 5 days of 0.02 μg/ml 4-OHT pre-treatment was employed for tumorsphere assay. 50 k per well of cells were seed and treated with indicated compounds the next day. 5 days after treatment, sphere number and size were assessed and normalized to vehicle control group. Data represent mean±SEM. n=3 independent experiments. Significance determined by one-way ANOVA analysis with Sidak's test for multiple comparisons.
FIG. 4E, PyMT;UBC-Cre^ERT+/−;Mtdh^fl/fl cells with or without SND1 knockdown, or without 5 days of 0.02 μg/ml 4-OHT pre-treatment were subjected to the tumorsphere assay and then treated with 200 μM of C26-A6 similar to FIG. 4C. Data represent mean SEM. n=3 independent experiments. Significance determined by two tailed Student's t-test.
FIG. 4F, PyMT;UBC-Cre^ERT+/−;Mtdh^fl/fl cells with or without SND1 knockdown, or with 5 days of 0.02 μg/ml 4-OHT pre-treatment were subjected to the tumorsphere assay and then treated with 200 μM of C26-A6 similar to FIG. 4C. Data represent mean±SEM. n=3 independent experiments. Significance determined by two tailed Student's t-test.
Next, PyMT; UBC-Cre^ERT+/−;Mtdh^fl/fl tumor cells: 1) with or without Mtdh pre-depletion; 2) with or without endogenous Snd1 knockdown; or 3) in combination were employed for tumorsphere assay followed by the compound treatments. […]

[2] = test system: PyMT;UBC-CreERT+/-;Mtdhfl/fl wild type tumor cells; assay: Tumorsphere assay, PyMT;UBC-CreERT+/-;Mtdhfl/fl wild type tumor cells; format: cell-based, mouse; settings: 5 days after treatment
Procedure: as §1, with “FIG. 4C,” for “FIG. 4D,”, “cells without” for “cells with”
Next, PyMT; UBC-Cre^ERT+/−;Mtdh^fl/fl tumor cells: 1) with or without Mtdh pre-depletion; 2) with or without endogenous Snd1 knockdown; or 3) in combination were employed for tumorsphere assay followed by the compound treatments. […] The results were confirmed using C3 and Wnt;UBC-Cre^ERT+/−;Mtdh^fl/fl tumorspheres (FIG. 11B-11E). Taken together, these findings confirmed that the anti-tumor effect of C26-A2 and A6 is dependent on their specific effect on blocking MTDH-SND1 interaction.

[3] = target: T1, linked-luc in SCP28 cells (Photinus pyralis, UniProt P08659, INS416[…]); assay: Linked-luciferase reporter in living SCP28 cells; format: cell-based; settings: multiple doses, 30 min after treatment
T1 construct: NLuc and CLuc were linked with 3 repeats of GGGS, flanked by the same restriction sites, and inserted into the same vectors; expressed in transfected cells; host or cells: SCP28 cells stably transduced with pRVPTO retroviral vector
T1 sequence (P08659 with tags, fused parts or gaps INS416[withheld]): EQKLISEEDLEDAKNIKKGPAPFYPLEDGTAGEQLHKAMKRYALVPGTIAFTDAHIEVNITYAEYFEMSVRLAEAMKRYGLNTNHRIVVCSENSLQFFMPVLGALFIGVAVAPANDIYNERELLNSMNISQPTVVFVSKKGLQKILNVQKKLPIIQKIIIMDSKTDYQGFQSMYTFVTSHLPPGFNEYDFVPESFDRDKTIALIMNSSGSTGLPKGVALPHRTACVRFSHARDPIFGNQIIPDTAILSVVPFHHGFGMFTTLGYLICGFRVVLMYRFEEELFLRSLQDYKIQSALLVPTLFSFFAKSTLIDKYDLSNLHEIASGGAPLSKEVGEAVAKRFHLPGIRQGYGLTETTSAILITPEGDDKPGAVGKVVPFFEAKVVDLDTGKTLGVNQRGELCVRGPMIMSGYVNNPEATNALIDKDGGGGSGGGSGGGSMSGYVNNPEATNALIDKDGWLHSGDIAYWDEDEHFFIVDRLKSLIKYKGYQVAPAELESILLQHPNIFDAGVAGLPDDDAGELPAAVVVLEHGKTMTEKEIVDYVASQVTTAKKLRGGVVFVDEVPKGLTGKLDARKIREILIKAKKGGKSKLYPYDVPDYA
Procedure: FIG. 4A, SCP28 cells that stably express split- or linked-luciferase components were treated with multiple doses of C26-A2 or C26-A6. 30 minutes (min) after treatment, culture media was removed and the luciferase activity in the cells was measured. Data represent mean±SEM. n=3 independent experiments.
C26s inhibit breast cancer progression and metastasis. C26-A2 and A6 were picked for the functional test. To this end, it was tested whether C26-A2 and A6 could inhibit breast cancer progression. […] Next, SCP28 breast cancer cells that were engineered to express split- or linked-luciferase reporter were treated with C26-A2 or A6.

[4] = test system: Wnt;UBC-CreERT+/-;Mtdhfl/fl tumor cells; assay: Tumorsphere assay, Wnt;UBC-CreERT+/-;Mtdhfl/fl tumor cells; format: cell-based, mouse; settings: with or without 4-OHT pre-treatment
Procedure: (§2) For FIGS. 11B-11E, 50 k per well of cells were seeded and treated with indicated compounds the next day. 5 days after treatment, sphere number and size were assessed and normalized to vehicle control group. Data represent mean±SEM. n=3 independent experiments. Significance determined by one-way ANOVA analysis with Dunnett's test for multiple comparisons.
FIG. 11D, Wnt;UBC-Cre^ERT+/−;Mtdh^fl/fl tumor cells without 5 days of 0.02 μg/ml 4-OHT pre-treatment were subjected to the tumorsphere assay.
FIG. 11E, Wnt;UBC-Cre^ERT+/−;Mtdh^fl/fl tumor cells with 5 days of 0.02 μg/ml 4-OHT pre-treatment were subjected to the tumorsphere assay.

[5] = test system: C3;UBC-CreERT+/-;Mtdhfl/fl tumor cells; assay: Tumorsphere assay, C3;UBC-CreERT+/-;Mtdhfl/fl tumor cells; format: cell-based, mouse; settings: with or without 4-OHT pre-treatment
Procedure: as §2
FIG. 11B, C3; UBC-Cre^ERT+/−;Mtdh^fl/fl tumor cells (FIGS. 11D, 11E) without 5 days of 0.02 μg/ml 4-OHT pre-treatment were subjected to the tumorsphere assay.
FIG. 11C, C3; UBC-Cre^ERT+/−;Mtdh^fl/fl tumor cells with 5 days of 0.02 μg/ml 4-OHT pre-treatment were subjected to the tumorsphere assay.

[6] = test system: SCP28 cells; assay: Experimental lung metastasis of SCP28 cells; format: in vivo; settings: 5 weeks treatment
Procedure: FIG. 17D, Tail-vein injection lung metastasis was determined by BLI right before (Week 0) or after (5 weeks) vehicle or C26-A6 treatment. Vehicle, n=11 lungs; C26-A6, n=12 lungs.
FIG. 17E, Lung metastatic nodules were quantified. The metastatic nodules of the representative lungs were highlighted with red and blue respectively. Size bar, 5 mm. Vehicle, n=11 lungs; C26-A6, n=12 lungs.
To exclude the possibility that the lung metastasis reduction upon C26-A6 treatment was due to the smaller primary tumor, tail vein injection of PyMT tumor cells was performed to form experimental lung metastasis in FVB mice. Three days later, mice were divided randomly into two groups and treated with vehicle or C26-A6 respectively (FIG. 5L).

[7] = test system: E0771-OVA control (shCtrl) cells; assay: E0771-OVA shCtrl cells / OT-I splenocyte co-culture; format: cell-based, mouse; settings: 24 hr co-culture
Description: For FIGS. 33B-33D, E0771-OVA cells with (shTap1/2) or without (shCtrl) Tap1/2 knockdown were co-cultured with OT-I splenocytes with the ratio of 1:10 (tumor cells:splenocytes). Data represent mean±SEM. n=3 independent experiments. Significance determined by one-way ANOVA analysis with Sidak's test for multiple comparisons.
FIG. 33B, 24 hr after co-culture, tumor cells were collected for examining OVA (H-2K^b-SIINFEKL) expression.
FIG. 33C, 24 hr after co-culture, tumor cells were collected for examining MHC-I expression.
FIG. 33D, 24 hr after co-culture, splenocytes were collected for examining CD137 expression.
MTDH-SND1 suppresses antigen presentation by reducing Tap1/2. To confirm that MTDH-SND1 drives immune evasion through suppressing the Tap1/2 pathway, antigen presentation-deficient cells were generated by knocking down Tap1/2^20. E0771-OVA cells were transduced with lentiviruses expressing Tap1/2-targeting shRNAs. Tap1/2 KD was confirmed by western blot (FIG. 33A), and antigen presentation deficiency upon Tap1/2 KD was also validated (FIGS. 33B, 33C). Next, shCtrl (control shRNA) or Tap1/2 KD cells were co-cultured with OT-I splenocytes together with vehicle or C26-A6 treatment.

In the case of `COc1ccc(Cl)cc1S(=O)(=O)Nc1cccn2ncnc12` [Analog C26-A2], the “tumorsphere formation (sphere number and size)” value (from here on “tumorsphere formation”) [1] was “no effects”, the “tumorsphere formation” value [2] was “inhibited spheres” and the “linked-luc activity in living cells” value [3] was “without significantly affecting linked-luc activity”. The “tumorsphere formation” value [4] was “confirmed” and the “tumorsphere formation” value [5] was “confirmed”.

In the case of `COc1ccc(Cl)cc1S(=O)(=O)Nc1cccn2nc(C)nc12` [Analog C26-A6], the experimental lung metastasis [6] was “dramatically inhibited”, the “tumorsphere formation” value [1] was “no effects” and the “tumorsphere formation” value [2] was “inhibited spheres”. The “linked-luc activity in living cells” value [3] was “without significantly affecting linked-luc activity”, the “tumorsphere formation” value [4] was “confirmed” and the “tumorsphere formation” value [5] was “confirmed”. For the same compound, the “antigen presentation and T cell activation” value [7] was “significant increase”.
